Among the data in patent US9175003B2, “Substituted azoanthracene derivatives and intermediates for preparation thereof” (TransTech Pharma, LLC, priority 2009, dated 2015) are EC50 values, retold here.

As usually defined, the EC50 is the midpoint of the concentration-response curve.

For this assay, the target named is human GLP-1 receptor (Homo sapiens (Human), UniProt P43220). The settings on record: read-out: Mean EC50; cAMP, HTRF detection, 30 min at 37° C., HEK-293 cells expressing cloned human GLP-1 receptor.
Chain of human GLP-1 receptor (P43220 24-463): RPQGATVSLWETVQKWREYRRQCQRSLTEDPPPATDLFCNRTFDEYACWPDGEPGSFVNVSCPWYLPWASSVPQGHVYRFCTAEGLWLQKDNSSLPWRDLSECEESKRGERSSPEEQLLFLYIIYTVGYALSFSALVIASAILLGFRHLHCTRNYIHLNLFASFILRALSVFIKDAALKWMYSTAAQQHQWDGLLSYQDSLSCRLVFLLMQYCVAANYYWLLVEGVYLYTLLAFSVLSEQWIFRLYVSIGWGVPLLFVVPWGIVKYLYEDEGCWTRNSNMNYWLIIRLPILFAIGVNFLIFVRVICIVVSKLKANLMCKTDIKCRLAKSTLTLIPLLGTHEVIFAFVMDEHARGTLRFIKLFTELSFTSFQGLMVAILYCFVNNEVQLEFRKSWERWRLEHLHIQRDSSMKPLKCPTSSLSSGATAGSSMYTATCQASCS

Experimental: Following overnight incubation of cells, media was removed, and compounds (at concentrations ranging from 0.0001 to 100 μM) were added to monolayer cells in Iscove's modified dulbecco's medium (IMDM), 100 μM RO 20-1724 PDE inhibitor, 0.1% BSA, 2% DMSO in a final volume of 100 μL, and incubated for 30 min at 37° C. […] Alternatively, cells were harvested and combined with compounds in suspension using the buffer and protocol described above. cAMP was quantified using a homogenous time-resolved fluorescence detection system (cAMP dynamic, CIS bio International).

Turning to `Cc1ccc(C(=O)N2Cc3cc4c(cc3C[C@H]2C(=O)N[C@@H](Cc2ccc(-c3ccnc(C)c3C)cc2)C(=O)O)OC[C@H](c2ccc(OCc3ccc(Cl)c(Cl)c3)cc2)O4)cc1` [Example 158, (S)-2-{[(3S,8S)-3-[4-(3,4-Dichloro-benzyloxy)-phenyl]-7-(4-methyl-benzoyl)-2,3,6,7,8,9-hexahydro-[1,4]dioxino[2,3-g]isoquinoline-8-carbonyl]-amino}-3-[4-(2,3-dimethyl-pyridin-4-yl)-phenyl]-propionic acid], the EC50 was 146 nM.

With `Cc1nccc(-c2ccc(C[C@H](NC(=O)[C@@H]3Cc4cc5c(cc4CN3C(=O)c3ccccc3)O[C@@H](c3ccc(OCc4ccc(Cl)c(Cl)c4)cc3)CO5)C(=O)O)cc2)c1C` [Example 159, (S)-2-({(3S,8S)-7-Benzoyl-3-[4-(3,4-dichloro-benzyloxy)-phenyl]-2,3,6,7,8,9-hexahydro-[1,4]dioxino[2,3-g]isoquinoline-8-carbonyl}-amino)-3-[4-(2,3-dimethyl-pyridin-4-yl)-phenyl]-propionic acid], the EC50 was found to be 19 nM.

Consider `CC[C@@H](c1ccccc1)N1Cc2cc3c(cc2C[C@H]1C(=O)N[C@@H](Cc1ccc(-c2ccnc(C)c2C)cc1)C(=O)O)OC[C@H](c1ccc(OCC2CCCC2)cc1)O3` [Example 160, (S)-2-{[(3S,8S)-3-(4-Cyclopentylmethoxy-phenyl)-7-((S)-1-phenyl-propyl)-2,3,6,7,8,9-hexahydro-[1,4]dioxino[2,3-g]isoquinoline-8-carbonyl]-amino}-3-[4-(2,3-dimethyl-pyridin-4-yl)-phenyl]-propionic acid], for which the EC50 came out at 62 nM.

As to `CC[C@@H](c1ccccc1)N1Cc2cc3c(cc2C[C@H]1C(=O)N[C@@H](Cc1ccc(-c2ccnc(C)c2C)cc1)C(=O)O)OC[C@H](c1ccc(OC)cc1)O3` [Example 161, (S)-3-[4-(2,3-Dimethyl-pyridin-4-yl)-phenyl]-2-{[(3S,8S)-3-(4-methoxy-phenyl)-7-((S)-1-phenyl-propyl)-2,3,6,7,8,9-hexahydro-[1,4]dioxino[2,3-g]isoquinoline-8-carbonyl]-amino}-propionic acid], the EC50 came to 117 nM.

Take `CC[C@@H](c1ccccc1)N1Cc2cc3c(cc2C[C@H]1C(=O)N[C@@H](Cc1ccc(-c2ccnc(C)c2C)cc1)C(=O)O)OC[C@H](c1ccc(OC(C)C)cc1)O3` [Example 162, (S)-3-[4-(2,3-Dimethyl-pyridin-4-yl)-phenyl]-2-{[(3S,8S)-3-(4-isopropoxy-phenyl)-7-((S)-1-phenyl-propyl)-2,3,6,7,8,9-hexahydro-[1,4]dioxino[2,3-g]isoquinoline-8-carbonyl]-amino}-propionic acid]: the EC50 stood at 56 nM.

On to `CC[C@@H](c1ccccc1)N1Cc2cc3c(cc2C[C@H]1C(=O)N[C@@H](Cc1ccc(-c2ccnc(C)c2C)cc1)C(=O)O)OC[C@H](c1ccc(OCC2CCCCC2)cc1)O3` [Example 163, (S)-2-{[(3S,8S)-3-(4-Cyclohexylmethoxy-phenyl)-7-((S)-1-phenyl-propyl)-2,3,6,7,8,9-hexahydro-[1,4]dioxino[2,3-g]isoquinoline-8-carbonyl]-amino}-3-[4-(2,3-dimethyl-pyridin-4-yl)-phenyl]-propionic acid], for which the 50% effective concentration (EC50) was 113 nM.

With `CC[C@@H](c1ccccc1)N1Cc2cc3c(cc2C[C@H]1C(=O)N[C@@H](Cc1ccc(-c2ccnc(C)c2C)cc1)C(=O)O)OC[C@H](c1ccc(OC2CCCCC2)cc1)O3` [Example 164, (S)-2-{[(3S,8S)-3-(4-Cyclohexyloxy-phenyl)-7-((S)-1-phenyl-propyl)-2,3,6,7,8,9-hexahydro-[1,4]dioxino[2,3-g]isoquinoline-8-carbonyl]-amino}-3-[4-(2,3-dimethyl-pyridin-4-yl)-phenyl]-propionic acid], the concentration for a half-maximal effect (EC50) came to 62 nM.

With `CC[C@@H](c1ccccc1)N1Cc2cc3c(cc2C[C@H]1C(=O)N[C@@H](Cc1ccc(-c2ccnc(C)c2C)cc1)C(=O)O)OC[C@H](c1ccc(OCCN(C)C)cc1)O3` [Example 165, (S)-2-{[(3S,8S)-3-[4-(2-Dimethylamino-ethoxy)-phenyl]-7-((S)-1-phenyl-propyl)-2,3,6,7,8,9-hexahydro-[1,4]dioxino[2,3-g]isoquinoline-8-carbonyl]-amino}-3-[4-(2,3-dimethyl-pyridin-4-yl)-phenyl]-propionic acid], the EC50 came out at 396 nM.

In the case of `CCC(CC)Oc1ccc([C@H]2COc3cc4c(cc3O2)CN([C@@H](CC)c2ccccc2)[C@H](C(=O)N[C@@H](Cc2ccc(-c3ccnc(C)c3C)cc2)C(=O)O)C4)cc1` [Example 166, (S)-3-[4-(2,3-Dimethyl-pyridin-4-yl)-phenyl]-2-{[(3S,8S)-3-[4-(1-ethyl-propoxy)-phenyl]-7-((S)-1-phenyl-propyl)-2,3,6,7,8,9-hexahydro-[1,4]dioxino[2,3-g]isoquinoline-8-carbonyl]-amino}-propionic acid], the EC50 was found to be 22 nM.

As for `CC[C@@H](c1ccccc1)N1Cc2cc3c(cc2C[C@H]1C(=O)N[C@@H](Cc1ccc(-c2ccnc(C)c2C)cc1)C(=O)O)OC[C@H](c1ccc(OCCC2CCCC2)cc1)O3` [Example 167, (S)-2-{[(3S,8S)-3-[4-(2-Cyclopentyl-ethoxy)-phenyl]-7-((S)-1-phenyl-propyl)-2,3,6,7,8,9-hexahydro-[1,4]dioxino[2,3-g]isoquinoline-8-carbonyl]-amino}-3-[4-(2,3-dimethyl-pyridin-4-yl)-5 phenyl]-propionic acid], the EC50 was determined as 174 nM.

Consider `CC[C@@H](c1ccccc1)N1Cc2cc3c(cc2C[C@H]1C(=O)N[C@@H](Cc1ccc(-c2ccnc(C)c2C)cc1)C(=O)O)OC[C@H](c1ccc(OCCC(C)(C)C)cc1)O3` [Example 168, (S)-2-{[(3S,8S)-3-[4-(3,3-Dimethyl-butoxy)-phenyl]-7-((S)-1-phenyl-propyl)-2,3,6,7,8,9-hexahydro-[1,4]dioxino[2,3-g]isoquinoline-8-carbonyl]-amino}-3-[4-(2,3-dimethyl-pyridin-4-yl)-phenyl]-propionic acid], for which the EC50 came to 114 nM.

As to `CC[C@@H](c1ccccc1)N1Cc2cc3c(cc2C[C@H]1C(=O)N[C@@H](Cc1ccc(-c2ccnc(C)c2C)cc1)C(=O)O)OC[C@H](c1ccc(OCc2cccnc2)cc1)O3` [Example 169, (S)-3-[4-(2,3-Dimethyl-pyridin-4-yl)-phenyl]-2-({(3S,8S)-7-((S)-1-phenyl-propyl)-3-[4-(pyridin-3-ylmethoxy)-phenyl]-2,3,6,7,8,9-hexahydro-[1,4]dioxino[2,3-g]isoquinoline-8-carbonyl}-amino)-propionic acid], the EC50 is 116 nM.

Consider `CCOc1ccc([C@H]2COc3cc4c(cc3O2)CN([C@@H](CC)c2ccccc2)[C@H](C(=O)N[C@@H](Cc2ccc(-c3ccnc(C)c3C)cc2)C(=O)O)C4)cc1` [Example 170, (S)-3-[4-(2,3-Dimethyl-pyridin-4-yl)-phenyl]-2-{[(3S,8S)-3-(4-ethoxy-phenyl)-7-((S)-1-phenyl-propyl)-2,3,6,7,8,9-hexahydro-[1,4]dioxino[2,3-g]isoquinoline-8-carbonyl]-amino}-propionic acid], for which the EC50 is 538 nM.

On to `CC[C@@H](c1ccccc1)N1Cc2cc3c(cc2C[C@H]1C(=O)N[C@@H](Cc1ccc(-c2ccnc(C)c2C)cc1)C(=O)O)OC[C@H](c1ccc(OC2CCCC2)cc1)O3` [Example 171, (S)-2-{[(3S,8S)-3-(4-Cyclopentyloxy-phenyl)-7-((S)-1-phenyl-propyl)-2,3,6,7,8,9-hexahydro-[1,4]dioxino[2,3-g]isoquinoline-8-carbonyl]-amino}-3-[4-(2,3-dimethyl-pyridin-4-yl)-phenyl]-propionic acid], for which the EC50 is 118 nM.

On to `CC[C@@H](c1ccccc1)N1Cc2cc3c(cc2C[C@H]1C(=O)N[C@@H](Cc1ccc(-c2ccnc(C)c2C)cc1)C(=O)O)OC[C@H](c1ccc(OCC(C)C)cc1)O3` [Example 172, (S)-3-[4-(2,3-Dimethyl-pyridin-4-yl)-phenyl]-2-{[(3S,8S)-3-(4-isobutoxy-phenyl)-7-((S)-1-phenyl-propyl)-2,3,6,7,8,9-hexahydro-[1,4]dioxino[2,3-g]isoquinoline-8-carbonyl]-amino}-propionic acid], for which the EC50 stood at 132 nM.

Take `CC[C@@H](c1ccccc1)N1Cc2cc3c(cc2C[C@H]1C(=O)N[C@@H](Cc1ccc(-c2ccnc(C)c2C)cc1)C(=O)O)OC[C@H](c1ccc(OC2CC4CCC2C4)cc1)O3` (stereo partly drawn) [Example 173, (S)-2-{[(3S,8S)-3-[4-(Bicyclo[2.2.1]hept-2-yloxy)-phenyl]-7-((S)-1-phenyl-propyl)-2,3,6,7,8,9-hexahydro-[1,4]dioxino[2,3-g]isoquinoline-8-carbonyl]-amino}-3-[4-(2,3-dimethyl-pyridin-4-yl)-phenyl]-propionic acid]: the EC50 came out at 145 nM.

With `Cc1nccc(-c2ccc(C[C@H](NC(=O)[C@@H]3Cc4cc5c(cc4CN3C(=O)OC(C)(C)C)O[C@@H](c3ccc(OCc4ccc(Cl)c(Cl)c4)cc3)CO5)C(=O)O)cc2)c1C` [Example 174, (3S,8S)-8-{(S)-1-Carboxy-2-[4-(2,3-dimethyl-pyridin-4-yl)-phenyl]-ethylcarbamoyl}-3-[4-(3,4-dichloro-benzyloxy)-phenyl]-2,3,8,9-tetrahydro-6H-[1,4]dioxino[2,3-g]isoquinoline-7-carboxylic acid tert-butyl ester], the EC50 amounted to 153 nM.

`Cc1nccc(-c2ccc(C[C@H](NC(=O)[C@@H]3Cc4cc5c(cc4CN3Cc3ccccn3)O[C@@H](c3ccc(OCc4ccc(Cl)c(Cl)c4)cc3)CO5)C(=O)O)cc2)c1C` [Example 175, (S)-2-({(3S,8S)-3-[4-(3,4-Dichloro-benzyloxy)-phenyl]-7-pyridin-2-ylmethyl-2,3,6,7,8,9-hexahydro-[1,4]dioxino[2,3-g]isoquinoline-8-carbonyl}-amino)-3-[4-(2,3-dimethyl-pyridin-4-yl)-phenyl]-propionic acid]: the EC50 was 5 nM.

Consider `Cc1ccccc1CN1Cc2cc3c(cc2C[C@H]1C(=O)N[C@@H](Cc1ccc(-c2ccnc(C)c2C)cc1)C(=O)O)OC[C@H](c1ccc(OCc2ccc(Cl)c(Cl)c2)cc1)O3` [Example 176, (S)-2-{[(3S,8S)-3-[4-(3,4-Dichloro-benzyloxy)-phenyl]-7-(2-methyl-benzyl)-2,3,6,7,8,9-hexahydro-[1,4]dioxino[2,3-g]isoquinoline-8-carbonyl]-amino}-3-[4-(2,3-dimethyl-pyridin-4-yl)-phenyl]-propionic acid], for which the 50% effective concentration (EC50) came to 4 nM.
